In patent US20160089348A1, “USE OF AN S1P RECEPTOR AGONIST” (priority 2009, published 2016):

How the values were obtained:
[1] = tested on: patients with relapsing-remitting MS (RRMS); test: Brain volume change (brain atrophy) by MRI using SIENA software in clinical study of daily oral fingolimod vs placebo; assay type: in vivo, human; conditions: for Brain volume, Percent change from Month 12 to Month 24, Mean (SD) / Brain volume, Percent change from Month 12 to Month 24, Median / Brain volume, Percent change from baseline to Month 24, Mean (SD) / Brain volume, Percent change from baseline to Month 24, Median / Brain volume, Percent change from baseline to Month 12, Mean (SD) / Brain volume, Percent change from baseline to Month 12, Median / Brain volume, Percent change from baseline to Month 6, Mean (SD) / Brain volume, Percent change from baseline to Month 6, Median: RRMS patients
Experimental: Annualized relapse rate (ARR) over 24 months (primary endpoint) and time to disability progression (key secondary endpoint) is assessed in patients with relapsing-remitting MS (RRMS). Patients aged 18-55 years with an Expanded Disability Status Scale score 0-5.5, relapse in the previous year (or ≧2 in the previous 2 years) are randomized to daily oral fingolimod 1.25 mg or 0.5 mg, or placebo. […]

[2] = tested on: patients with relapsing-remitting MS (RRMS); test: MRI lesion measures (Gd-enhancing, T2, T1 hypointense lesions) in clinical study of daily oral fingolimod vs placebo; assay type: in vivo, human; conditions: for T1 hypointense lesion volume, months 0-24 - % change, Mean ± SD / T1 hypointense lesion volume, months 0-24 - % change, Median (range) / T2 lesion volume, months 0-24 - % change, Mean ± SD / T2 lesion volume, months 0-24 - % change, Median (range) / Patients free from new or enlarged T2 lesions, months 0-24 - (%) / Patients free from new or enlarged T2 lesions, months 0-24 - no.: RRMS patients
Experimental: Annualized relapse rate (ARR) over 24 months (primary endpoint) and time to disability progression (key secondary endpoint) is assessed in patients with relapsing-remitting MS (RRMS). Patients aged 18-55 years with an Expanded Disability Status Scale score 0-5.5, relapse in the previous year (or ≧2 in the previous 2 years) are randomized to daily oral fingolimod 1.25 mg or 0.5 mg, or placebo. […] The brain volume changes for months 0 to 12 is measured using SIENA software.

[3] = FTY720 0.5 mg daily oral, n 356
[4] = FTY720 0.5 mg daily oral, n 357
[5] = FTY720 0.5 mg daily oral, n 383
[6] = FTY720 0.5 mg daily oral, n 395
[7] = FTY720 1.25 mg daily oral, n 327
[8] = FTY720 1.25 mg daily oral, n 334
[9] = FTY720 1.25 mg daily oral, n 371
[10] = FTY720 1.25 mg daily oral, n 384
[11] = fingolimod-treated patients, baseline to month 24
[12] = fingolimod 0.5 mg daily oral, N = 346 with MRI data
[13] = fingolimod 0.5 mg daily oral, N = 368 with MRI data
[14] = fingolimod 0.5 mg daily oral, N = 425
[15] = fingolimod 1.25 mg daily oral, N = 317 with MRI data
[16] = fingolimod 1.25 mg daily oral, N = 343 with MRI data
[17] = fingolimod 1.25 mg daily oral, N = 429
[18] = both fingolimod groups (1.25 mg, 0.5 mg), at 6, 12 and 24 months

In the case of `CCCCCCCCc1ccc(CCC(N)(CO)CO)cc1.Cl` [fingolimod, 2-amino-2-[2-(4-octylphenyl)ethyl]propane-1,3-diol], the “Brain volume, Percent change from Month 12 to Month 24, Mean (SD)” value [1, 3] was −0.370 (0.8073) %, the “Brain volume, Percent change from Month 12 to Month 24, Median” value [1, 3] was −0.340% and the “Brain volume, Percent change from baseline to Month 24, Mean (SD)” value [1, 4] was −0.843 (1.3120) %. For the same compound, the “Brain volume, Percent change from baseline to Month 24, Median” value [1, 4] was −0.670%, the “Brain volume, Percent change from baseline to Month 12, Mean (SD)” value [1, 5] was −0.500 (1.0509) % and the “Brain volume, Percent change from baseline to Month 12, Median” value [1, 5] was −0.380%. The “Brain volume, Percent change from baseline to Month 6, Mean (SD)” value [1, 6] was −0.224 (0.8131) %, the “Brain volume, Percent change from baseline to Month 6, Median” value [1, 6] was −0.140% and the “Brain volume, Percent change from Month 12 to Month 24, Mean (SD)” value [1, 7] was −0.423 (0.8284) %. The “Brain volume, Percent change from Month 12 to Month 24, Median” value [1, 7] was −0.380%, the “Brain volume, Percent change from baseline to Month 24, Mean (SD)” value [1, 8] was −0.885 (1.3857) % and the “Brain volume, Percent change from baseline to Month 24, Median” value [1, 8] was −0.700%. For the same compound, the “Brain volume, Percent change from baseline to Month 12, Mean (SD)” value [1, 9] was −0.438 (1.0792) %, the “Brain volume, Percent change from baseline to Month 12, Median” value [1, 9] was −0.300% and the “Brain volume, Percent change from baseline to Month 6, Mean (SD)” value [1, 10] was −0.209 (0.8649) %. For the same compound, the “Brain volume, Percent change from baseline to Month 6, Median” value [1, 10] was −0.120%, the “Reduction in atrophy rate versus placebo” value [1, 11] was 30% and the “Reduction in brain volume versus placebo group” value [1, 11] was “significantly less reduction in brain volume than those in the placebo group”. For the same compound, the “T1 hypointense lesion volume, months 0-24 - % change, Mean ± SD” value [2, 12] was 8.8 ± 76.27%, the “T1 hypointense lesion volume, months 0-24 - % change, Median (range)” value [2, 12] was 0.00 (−100.0-1037.1) % and the “T2 lesion volume, months 0-24 - % change, Mean ± SD” value [2, 13] was 10.6 ± 103.46%. For the same compound, the “T2 lesion volume, months 0-24 - % change, Median (range)” value [2, 13] was −1.69 (−100.0-1828.5) %, the “Patients free from new or enlarged T2 lesions, months 0-24 - (%)” value [2, 14] was 50.5% and the “Patients free from new or enlarged T2 lesions, months 0-24 - no.” value [2, 14] was 187. For the same compound, the “T1 hypointense lesion volume, months 0-24 - % change, Mean ± SD” value [2, 15] was 12.2 ± 85.49%, the “T1 hypointense lesion volume, months 0-24 - % change, Median (range)” value [2, 15] was −0.20 (−100.0-888.4) % and the “T2 lesion volume, months 0-24 - % change, Mean ± SD” value [2, 16] was 1.6 ± 30.71%. The “T2 lesion volume, months 0-24 - % change, Median (range)” value [2, 16] was −3.10 (−68.2-221.5) %, the “Patients free from new or enlarged T2 lesions, months 0-24 - (%)” value [2, 17] was 51.9% and the “Patients free from new or enlarged T2 lesions, months 0-24 - no.” value [2, 17] was 175. For the same compound, the “Proportions of patients free from new or enlarged T2 lesions versus placebo” value ([2]; both fingolimod doses, over 24 months) was “greater proportions of patients are free from these lesions”, the “Gd-enhancing lesions versus placebo group” value [2, 18] was “significantly fewer Gd-enhancing lesions than those in the placebo group” and the “Patients free from Gd-enhancing lesions versus placebo” value [2, 18] was “proportionately more patients are free from Gd-enhancing lesions”. The “New or enlarged T2 lesions versus placebo” value ([2]; fingolimod 0.5 mg or 1.25 mg, over 24 months) was “Fewer new or enlarged T2 lesions” and the “Volume of T2 lesions, change from baseline to month 24” value ([2]; fingolimod-treated patients, increases with placebo) was “decreases”.
